System: HIV RNA splicing in infected PBMCs
Experiment: Sequence capture and 454 pyrosequencing of HIV RNA in infected PBMCs
Assay type: cell-based, HIV-1
Procedure: To test whether Compound 1 influences the splicing of HIV RNA in infected cells, an array-based sequence capture was performed using a customized library probes targeting HIV sequences to get rid of cellular RNA. The probes were used to capture cDNAs prepared from infected treated and untreated PBMCs. After double capture, libraries were prepared and sequenced using 454 pyrosequencing (according to GS junior method manual). The average size of the reads around 400 bp allowed unambiguous assembly of viral genome from untreated sample (after 3 and 6 days of infection) using reads that were not mapped to human genome (hg19). All sequencing data were analysed using gsnap, as detailed in Wu et al. (Fast and SNP-tolerant detection of complex variants and splicing in short reads. Bioinformatics 26, 873-881 (2010)).

## FC(F)(F)Oc1ccc(Nc2ccc3cccc(Cl)c3n2)cc1 [Compound 1, 8-chloro-N-(4-(trifluoromethoxy)phenyl)quinolin-2-amine]
3 days post infection
  coverage of viral genome: 4149 reads
3 days post-infection
  fraction of reads corresponding to splice junctions: 17.4%
6 days post-infection
  fraction of reads corresponding to splice junctions: 13.3%
  number of reads: 20 585

— patent US10718770B2, “Methods for screening compounds for treating or preventing a viral infection or a virus-related condition” (ABIVAX, priority 2015, dated 2020)
